Results on two molecules are retold here after patent publication US7741521B2, “Inhibition of bid-induced cell-death using small organic molecules” (The Burnham Institute, priority 2004, dated 2010).

In series [1] the target is T1, tBID (Mus musculus, UniProt P70444).
T1 construct: tBID was produced by cleavage of purified BID with caspase-8, as known in the art; made in house; host or cells: E. coli BL21 (BID), then cleaved in vitro with caspase-8
T1 sequence (P70444 60-195 limits assumed): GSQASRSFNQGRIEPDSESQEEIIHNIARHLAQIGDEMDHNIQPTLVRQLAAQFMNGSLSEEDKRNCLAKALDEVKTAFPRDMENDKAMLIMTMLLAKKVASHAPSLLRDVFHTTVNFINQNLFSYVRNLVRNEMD
T1 sequence (P70444 1-59 partner limits assumed): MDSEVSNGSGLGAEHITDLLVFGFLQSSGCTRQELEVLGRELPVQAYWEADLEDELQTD
Nature of the series: tBID association with isolated mitochondria (immunoblot with BID antibody). Format: biochemical. As to conditions: at 20 μM. The procedure: Compounds II-IX were tested in vitro for their ability to inhibit BID-mediated release of Smac using mitochondria isolated from HeLa cells (FIG. 6A). The first lane represents mitochondria incubated without tBID. All others received 100 ng tBID without or with compounds. Each compound was tested at a concentration of 50 μM. […] To preliminarily investigate the mechanism by which compound II reduces Smac-release from isolated mitochondria, the tBID protein was treated with different concentrations of BI-6C9, after which it was incubated with mitochondria, followed by analysis of the bound and unbound fractions by immunoblotting using BID antibody. The concentration of mitochondria-bound tBID diminished in response to increasing concentrations of compound II.

The subject of series [2] is HeLa cells transfected with a plasmid encoding tBID. Nature of the series: Effector caspase activity in lysates of tBID-transfected cells. It counts as cell-based. How it is done: HEK 293T cells were transfected with 0.5 μg of plasmids encoding either GFP or GFP-tBID in 12 wells plate. After 3 hours transfection, various compounds were added in DMSO to the media. After 20 hours of further incubation, cells were collected and either lysed for caspase assays or fixed and stained with DAPI for determination of apoptosis^50. For caspase activity assays, 293T cells were lysed in lysis buffer (10 mM Hepes, pH 7.4, 142.2 mM KCl, 5 mM MgCl2, 0.5 mM EDTD, 0.5% NP-40) containing a protease inhibitor mixture (Roche Molecular Biochemicals). The lysates were normalized for protein concentration (10 μg), then incubated with 100 μM DEVD-AFC. Enzyme activity was determined by the release of AFC-fluorescence and Vmax was calculated (mean±Std. dev; n=3). For DAPI staining, 293T cells were fixed, washed with PBS, and stained with 0.1 mg/ml DAPI. The percentage of GFP-positive cells with apoptotic morphology (fragment nuclei or condensed chromatin) was determined (mean±Std. dev; n=3).
Compound II was also evaluated for its ability to inhibit BID-induced apoptosis in cell; for these experiments, HeLa cells were transfected with a plasmid encoding tBID, and effector caspase activity was measured in cell lysates 24 hours later. […] Moreover, tBID-induced cell death, as measured by caspase-3 activity, was reduced from 80±5% to 35±5% by 50 µM of compound II (FIG. 6E). […]

Series [3] addresses T2, caspase-3 (Homo sapiens, UniProt P42574).
T2 sequence (P42574 29-175 limits assumed): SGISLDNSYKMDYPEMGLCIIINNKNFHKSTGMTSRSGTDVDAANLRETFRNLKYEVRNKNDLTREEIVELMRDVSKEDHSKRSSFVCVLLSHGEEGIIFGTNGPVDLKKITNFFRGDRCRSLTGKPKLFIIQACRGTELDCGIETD
T2 sequence (P42574 176-277 limits assumed): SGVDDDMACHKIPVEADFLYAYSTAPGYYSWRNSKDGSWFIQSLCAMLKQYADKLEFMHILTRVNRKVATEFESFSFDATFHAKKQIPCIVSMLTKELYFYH
Nature of the series: Caspase-3 in vitro assay. It counts as biochemical. As to conditions: concentrations used in the cellular assay.

The subject of series [4] is primary hippocampal neurons. As to the kind of experiment: Glutamate-induced cell death in primary hippocampal neurons. It counts as cell-based. The procedure: Primary cultures were obtained from embryonic day 18 rats and cultured in Neurobasal medium (Invitrogen, Karlsruhe, Germany) supplemented with 5 mM HEPES, 1.2 mM glutamine, B27 supplement (Invitrogen, 20 ml/l) and gentamicin (0.1 mg/ml) as described in the art. Glutamate (20 μM) was added in 9-10 day old cultures in EBSS medium (6800 mg/L NaCl, 400 mg/L KCl, 264 mg/L CaCl2×2H2O, 200 mg/L MgCl2×7H2O, 2200 mg/L NaHCO3, 140 mg/L NaH2PO4×H2O, 10 mM glucose, pH 7.2).
Neuronal cell death was quantified after staining the nuclei with the DNA-binding fluorochrome Hoechst 33258 (Molecular Probes) or by the MTT assay. Immunocytochemistry was performed as described in the art, with a polyclonal anti-AIF antibody (sc-9416, Santa Cruz; 1:200) followed by incubation a biotinylated anti-goat IgG antibody (1:200) Vector Laboratories) and Oregon Green-streptavidin (Molecular Probes). […]
To assess whether the compounds of the present invention would also prevent neuronal cell death in primary cultures, a number of cell-based assays were performed. […] Twenty-four hours later, apoptotic nuclei were quantified after staining with Hoechst 33342. In a separate experiment (FIG. 11C), the protective effect of Compound I against glutamate-induced cell death was quantified by the MTT assay. […]

Series [5] concerns rat embryonic cortical neurons. As to the kind of experiment: Nuclear translocation of AIF in neurons exposed to glutamate. Format: cell-based. As to conditions: glutamate 20 μM, 8 h. The procedure: Neuronal cell death was quantified after staining the nuclei with the DNA-binding fluorochrome Hoechst 33258 (Molecular Probes) or by the MTT assay. Immunocytochemistry was performed as described in the art, with a polyclonal anti-AIF antibody (sc-9416, Santa Cruz; 1:200) followed by incubation a biotinylated anti-goat IgG antibody (1:200) Vector Laboratories) and Oregon Green-streptavidin (Molecular Probes). After counterstaining with Hoechst 33342 images were acquired using a confocal laser scanning microscope (Axiovert, Zeiss) with a 60× oil immersion objective (514-nm excitation and 535-nm emission for detection of Oregon Green and 352-nm excitation and 460-nm emission for detection of Hoechst 33342).
Pretreatment with Compound I preserves nuclear morphology (blue fluorescence, Hoechst 33342) and prevents AIF translocation. […] Mean values and SD of 4 dishes per group are presented.

Regarding `COc1ccc(S(=O)(=O)NCCCC(=O)Nc2ccc(Sc3ccc(N)cc3)cc2)cc1` [Compound II, N-[4-(4-amino-phenylsulfanyl)-phenyl]-4-(4-methoxy-benzenesulfonylamino)-butyramide], the “inhibition of tBID association with isolated mitochondria” value in series [1] is on record as “effective”. Further, in series [2] (50 µM, 24 hours after transfection), the “reduction of caspase-3 activity in tBID-transfected cells” value is ~4 fold. Further, the “caspase activity in tBID-transfected cells” value in series [2] (100 µM) is given as “totally blocked”. The “inhibition of caspase-3” value in series [3] was “does not inhibit”.
In the case of `Nc1ccc(Sc2ccc(NC(=O)CNC(=O)c3ccc(O)cc3O)cc2)cc1` [Compound I, N-((4-(4-aminophenylthio)phenylcarbamoyl)methyl)-2,4-dihydroxybenzamide], the “concentration range of dose-dependent neuroprotective effect” value in series [4] (1 hour pretreatment, glutamate 20 μM, 24 hours, Hoechst 33342 apoptotic nuclei) was in the range of 0.2 to 2 µM. Besides, the “toxicity to primary hippocampal neurons” value in series [4] (at higher concentrations (20 μM)) is “some toxicity”. Further, the “nuclear translocation of AIF” value in series [5] was “prevented”.
